Data as given in patent US6479435B1, “Diaryl ethers and processes for their preparation and herbicidal and desiccant compositions containing them” (ISK Americas Incorporated, priority 1997, dated 2002).

What was measured:
Type in all cases: in vivo
[1] = system: upland rice (Oryza sp., var.Tebonnet, RICE); assay: Pre-emerge greenhouse test, crop damage rating; conditions: 14 days after application, rating scale 0-100
Outline: (§1)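 Seeds sown in sandy loam mix one day before track-sprayer application of compounds in acetone at 125–1000 g ai/ha (187 l/ha), then surface-watered to incorporate and bottom-watered. Visual rating 14 days after application on a 0–100 scale (0 = no damage, 100 = all plants dead).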

[2] = system: field corn (Zea mays L., var. Dekalb 535, CORN); assay: Pre-emerge greenhouse test, crop damage rating; conditions: 14 days after application, rating scale 0-100
Outline: as §1

[3] = system: common ragweed (Ambrosia artemisiifolia L., AMBEL); assay: Post-emerge greenhouse herbicide test, phytotoxicity rating; conditions: 14 days after application
Outline: (§2)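 Compounds in acetone with 0.25% v/v non-ionic surfactant were track-sprayed at 187 l/ha over plants at the 2-3 leaf stage, at 63 to 1000 g ai/ha. Pots were bottom-watered. Injury was scored visually 14 days later on a 0-100 scale, where 0 is no damage and 100 is complete plant death.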

[4] = system: soybean (Glycine max L., var. Pella 86, SOY); assay: Post-emerge greenhouse test, crop damage rating; conditions: 14 days after application
Outline: as §2

[5] = system: barnyardgrass (Echinochloa crusgalli, ECHCG); assay: Pre-emerge greenhouse herbicide test, phytotoxicity rating; conditions: 14 days after application, rating scale 0-100
Outline: as §1

[6] = system: lambsquarters (Chenopodium album, CHEAL); assay: as above; conditions: 14 days after application, rating scale 0-100
Outline: as §1

[7] = system: redroot pigweed (Amaranthus retroflexus, AMARE); assay: as above; conditions: 14 days after application, rating scale 0-100
Outline: as §1

[8] = system: sicklepod (Cassia obtusifolia, CASOB); assay: as above; conditions: 14 days after application, rating scale 0-100
Outline: as §1

[9] = system: green foxtail (Setaria viridis, SETVI); assay: as above; conditions: 14 days after application, rating scale 0-100
Outline: as §1

[10] = system: Johnsongrass (Sorghum halepense, SORHA); assay: as above; conditions: 14 days after application, rating scale 0-100
Outline: as §1

[11] = system: ivyleaf morningglory (Ipomoea hederacea, IPOHE); assay: as above; conditions: 14 days after application, rating scale 0-100
Outline: as §1

[12] = system: common ragweed (Ambrosia artemisiifolia L., AMBEL); assay: as above; conditions: 14 days after application, rating scale 0-100
Outline: as §1

[13] = system: large crabgrass (Digitaria sanguinalis, DIGSA); assay: as above; conditions: 14 days after application, rating scale 0-100
Outline: as §1

[14] = system: velvetleaf (Abutilon theophrasti, ABUTH); assay: as above; conditions: 14 days after application, rating scale 0-100
Outline: as §1

[15] = system: barnyardgrass (Echinochloa crusgalli, ECHCG); assay: Post-emerge greenhouse herbicide test, phytotoxicity rating; conditions: 14 days after application
Outline: as §2

[16] = system: lambsquarters (Chenopodium album, CHEAL); assay: as above; conditions: 14 days after application
Outline: as §2

[17] = system: redroot pigweed (Amaranthus retroflexus, AMARE); assay: as above; conditions: 14 days after application
Outline: as §2

[18] = system: green foxtail (Setaria viridis, SETVI); assay: as above; conditions: 14 days after application
Outline: as §2

[19] = system: Johnsongrass (Sorghum halepense, SORHA); assay: as above; conditions: 14 days after application
Outline: as §2

[20] = system: ivyleaf morningglory (Ipomoea hederacea, IPOHE); assay: as above; conditions: 14 days after application
Outline: as §2

[21] = system: large crabgrass (Digitaria sanguinalis, DIGSA); assay: as above; conditions: 14 days after application
Outline: as §2

[22] = system: velvetleaf (Abutilon theophrasti, ABUTH); assay: as above; conditions: 14 days after application
Outline: as §2

[23] = system: upland rice (Oryza sp., var.Tebonnet, RICE); assay: Post-emerge greenhouse test, crop damage rating; conditions: 14 days after application
Outline: as §2

[24] = system: field corn (Zea mays L., var. Dekalb 535, CORN); assay: Post-emerge greenhouse test, crop damage rating; conditions: 14 days after application
Outline: as §2

[25] = system: soybean (Glycine max L., var. Pella 86, SOY); assay: Pre-emerge greenhouse test, crop damage rating; conditions: 14 days after application, rating scale 0-100
Outline: as §1

## N#Cc1ccccc1Oc1cc(-n2c(=O)n3n(c2=S)CCCC3)c(F)cc1Cl [Compound 8-7]
[1]; 125 g ai/ha
  crop damage rating RICE: 20
[1]; 500 g ai/ha
  crop damage rating RICE: 50
[2]; 125 g ai/ha
  crop damage rating CORN: 0
[2]; 500 g ai/ha
  crop damage rating CORN: 10
[3]; 63 g al/ha
  AMBEL phytotoxicity rating (0-100): 60
[3]; 500 g al/ha
  AMBEL phytotoxicity rating (0-100): 80
[4]; 63 g al/ha
  SOY crop damage rating (0-100): 20
[4]; 500 g al/ha
  SOY crop damage rating (0-100): 70
[5]; 125 g ai/ha
  phytotoxicity rating ECHCG: 100
[5]; 500 g ai/ha
  phytotoxicity rating ECHCG: 100
[6]; 125 g ai/ha
  phytotoxicity rating CHEAL: 100
[6]; 500 g ai/ha
  phytotoxicity rating CHEAL: 100
[7]; 125 g ai/ha
  phytotoxicity rating AMARE: 90
[7]; 500 g ai/ha
  phytotoxicity rating AMARE: 100
[8]; 125 g ai/ha
  phytotoxicity rating CASOB: 70
[8]; 500 g ai/ha
  phytotoxicity rating CASOB: 100
[9]; 125 g ai/ha
  phytotoxicity rating SETVI: 70
[9]; 500 g ai/ha
  phytotoxicity rating SETVI: 90
[10]; 125 g ai/ha
  phytotoxicity rating SORHA: 20
[10]; 500 g ai/ha
  phytotoxicity rating SORHA: 70
[11]; 125 g ai/ha
  phytotoxicity rating IPOHE: 30
[11]; 500 g ai/ha
  phytotoxicity rating IPOHE: 100
[12]; 125 g ai/ha
  phytotoxicity rating AMBEL: 70
[12]; 500 g ai/ha
  phytotoxicity rating AMBEL: 100
[13]; 125 g ai/ha
  phytotoxicity rating DIGSA: 60
[13]; 500 g ai/ha
  phytotoxicity rating DIGSA: 99
[14]; 125 g ai/ha
  phytotoxicity rating ABUTH: 100
[14]; 500 g ai/ha
  phytotoxicity rating ABUTH: 100
[15]; 63 g al/ha
  ECHCG phytotoxicity rating (0-100): 0
[15]; 500 g al/ha
  ECHCG phytotoxicity rating (0-100): 20
[16]; 63 g al/ha
  CHEAL phytotoxicity rating (0-100): 90
[16]; 500 g al/ha
  CHEAL phytotoxicity rating (0-100): 100
[17]; 63 g al/ha
  AMARE phytotoxicity rating (0-100): 100
[17]; 500 g al/ha
  AMARE phytotoxicity rating (0-100): 100
[18]; 63 g al/ha
  SETVI phytotoxicity rating (0-100): 0
[18]; 500 g al/ha
  SETVI phytotoxicity rating (0-100): 0
[19]; 63 g al/ha
  SORHA phytotoxicity rating (0-100): 0
[19]; 500 g al/ha
  SORHA phytotoxicity rating (0-100): 70
[20]; 63 g al/ha
  IPOHE phytotoxicity rating (0-100): 100
[20]; 500 g al/ha
  IPOHE phytotoxicity rating (0-100): 100
[21]; 63 g al/ha
  DIGSA phytotoxicity rating (0-100): 0
[21]; 500 g al/ha
  DIGSA phytotoxicity rating (0-100): 50
[22]; 63 g al/ha
  ABUTH phytotoxicity rating (0-100): 100
[22]; 500 g al/ha
  ABUTH phytotoxicity rating (0-100): 100
[23]; 63 g al/ha
  RICE crop damage rating (0-100): 10
[23]; 500 g al/ha
  RICE crop damage rating (0-100): 50
[24]; 63 g al/ha
  CORN crop damage rating (0-100): 20
[24]; 500 g al/ha
  CORN crop damage rating (0-100): 0
[25]; 125 g ai/ha
  crop damage rating SOY: 0
[25]; 500 g ai/ha
  crop damage rating SOY: 20
